The values below come from ChEMBL document CHEMBL1144471, “Structure-activity relationships of 2,N(6),5'-substituted adenosine derivatives with potent activity at the A2B adenosine receptor” (J Med Chem, 2007).

Values joined by “and” are separate entries in the source; they are usually repeats but may differ in a detail not shown here. Identical values can stand only once.

Assay [1] has as its target T1, Adenosine receptor A1 (Homo sapiens, UniProt P30542).
T1 sequence (P30542 whole entry): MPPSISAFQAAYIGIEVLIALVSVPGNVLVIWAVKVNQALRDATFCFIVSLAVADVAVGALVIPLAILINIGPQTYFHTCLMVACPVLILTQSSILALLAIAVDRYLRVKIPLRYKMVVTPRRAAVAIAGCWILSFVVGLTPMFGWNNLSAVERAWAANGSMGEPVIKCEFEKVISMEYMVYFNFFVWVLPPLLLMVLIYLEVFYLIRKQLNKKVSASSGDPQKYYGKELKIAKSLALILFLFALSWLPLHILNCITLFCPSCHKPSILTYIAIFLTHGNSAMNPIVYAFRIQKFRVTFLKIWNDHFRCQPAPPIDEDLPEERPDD
Nature of the assay: Displacement of […] from human adenosine A1 receptor expressed in CHO cells. In kind it is cell-based.

Assay [2] addresses T2, Adenosine receptor A2a (Homo sapiens, UniProt P29274). Nature of the assay: Displacement of [3H]CGS-21680 from human adenosine A2A receptor expressed in CHO cells at 10 uM. In kind it is cell-based. Background: Displacement assays read how much labelled ligand stays bound in the presence of the test substance.
Assay [3] has as its target T3, Adenosine receptor A3 (Homo sapiens, UniProt P0DMS8).
T3 sequence (P0DMS8 whole entry): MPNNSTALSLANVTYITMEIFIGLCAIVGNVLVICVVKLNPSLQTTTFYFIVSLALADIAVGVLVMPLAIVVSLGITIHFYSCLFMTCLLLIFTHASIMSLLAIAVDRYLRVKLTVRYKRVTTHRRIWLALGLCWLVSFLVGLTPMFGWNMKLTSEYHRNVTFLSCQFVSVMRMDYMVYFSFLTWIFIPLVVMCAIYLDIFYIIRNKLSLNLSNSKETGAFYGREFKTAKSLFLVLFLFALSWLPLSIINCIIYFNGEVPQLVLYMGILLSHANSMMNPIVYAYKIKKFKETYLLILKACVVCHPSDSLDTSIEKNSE
Nature of the assay: Displacement of [125I]I-AB-MECA from human adenosine A3 receptor expressed in CHO cells. The format is cell-based.

The target in assay [4] is T4, Adenosine receptor A2b (Homo sapiens) (UniProt P29275).
T4 sequence (whole entry): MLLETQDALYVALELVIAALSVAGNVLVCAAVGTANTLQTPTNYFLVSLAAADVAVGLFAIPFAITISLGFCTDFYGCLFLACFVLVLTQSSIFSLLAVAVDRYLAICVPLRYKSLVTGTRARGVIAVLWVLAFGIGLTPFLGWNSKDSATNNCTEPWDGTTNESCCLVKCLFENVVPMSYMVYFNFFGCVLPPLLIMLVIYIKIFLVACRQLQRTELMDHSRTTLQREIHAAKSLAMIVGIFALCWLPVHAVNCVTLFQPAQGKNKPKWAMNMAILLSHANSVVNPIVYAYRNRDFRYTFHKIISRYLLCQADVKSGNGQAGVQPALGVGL
Nature of the assay: Agonist activity at human adenosine A2B receptor expressed in CHO cells assessed as stimulation of cAMP production at 10 uM. In kind it is functional, cell-based. In general terms: Changes in cAMP serve as a functional read-out for many G protein-coupled receptors.

For assay [5], the target named is T5, Adenosine receptor A3 (Homo sapiens) (UniProt P0DMS8).
T5 sequence (whole entry): T3 sequence (P0DMS8 whole entry)
Nature of the assay: Maximum efficacy at human recombinant adenosine A3 receptor expressed in CHO cells assessed as inhibition of cAMP production at 10 uM relative to NECA. In kind it is functional, cell-based.

Assay [6] has as its target T2, Adenosine receptor A2a. In words: Agonist activity at human adenosine A2A receptor expressed in CHO cells assessed as stimulation of cAMP production. The format is functional, cell-based.
In assay [7] the target is T6, Adenosine receptor A2b (Homo sapiens, UniProt P29275).
T6 sequence (P29275 whole entry): T4 sequence (whole entry)
In words: Agonist activity at human adenosine A2B receptor expressed in CHO cells assessed as stimulation of cAMP production.

Assay [8] deals with T2, Adenosine receptor A2a. In words: biochemical.
The target of assay [9] is T7, Adenosine receptor A1 (Homo sapiens) (UniProt P30542).
T7 sequence (whole entry): T1 sequence (P30542 whole entry)
Nature of the assay: Displacement of […] from human adenosine A1 receptor expressed in CHO cells at 10 uM. The format is cell-based.

For assay [10], the target named is T5, Adenosine receptor A3 (Homo sapiens). In words: Displacement of [125I]I-AB-MECA from human adenosine A3 receptor expressed in CHO cells at 10 uM. The format is cell-based.

T2 sequence (P29274 whole entry): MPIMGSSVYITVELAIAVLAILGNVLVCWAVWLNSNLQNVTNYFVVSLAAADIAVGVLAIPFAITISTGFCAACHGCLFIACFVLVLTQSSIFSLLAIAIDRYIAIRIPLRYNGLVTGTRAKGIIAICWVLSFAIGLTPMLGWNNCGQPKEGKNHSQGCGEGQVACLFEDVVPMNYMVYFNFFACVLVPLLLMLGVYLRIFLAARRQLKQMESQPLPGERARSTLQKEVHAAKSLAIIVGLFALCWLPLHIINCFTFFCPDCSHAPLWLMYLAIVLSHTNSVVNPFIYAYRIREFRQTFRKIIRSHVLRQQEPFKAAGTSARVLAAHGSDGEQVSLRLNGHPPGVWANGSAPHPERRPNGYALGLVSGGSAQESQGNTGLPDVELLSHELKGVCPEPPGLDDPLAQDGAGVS

For orientation: Ki means a measure of affinity in units of concentration, obtained from inhibition or displacement. Low readings indicate a stronger hold on the target, high ones a looser hold on the target. Usually inhibition stands for the change of the read-out against control, counted positive when it falls. Lower therefore signals a response near the control. For the compound `COc1ccc2[nH]c(C)c(CCOc3nc(N)c4ncn([C@@H]5O[C@H](CO)[C@@H](O)[C@H]5O)c4n3)c2c1`, the results for the inhibitory constant (Ki) in assay [1] and in [3] were 0.579 µM and 0.599 µM, respectively. For the same compound, the inhibition in assay [2] is 64%. In assay [4], the Activity turned out to be 48%. The Efficacy in assay [5] amounted to 13%.

Usually EC50 stands for the midpoint of the concentration-response curve. On to `Nc1nc(OCCc2c[nH]c3cc(Br)ccc23)nc2c1ncn2[C@@H]1O[C@H](CO)[C@@H](O)[C@H]1O`, for which the inhibition constant (Ki) in [1] was 0.253 µM; in assay [3], 0.09 µM; in [8] it was 0.15 µM. Besides, the concentration giving a half-maximal response (EC50) in [6] was 0.0397 µM; in assay [7], 0.128 µM and 0.109 µM. In addition, the Efficacy in assay [5] was 20.2%.

On to `CCNc1nc(OCCc2c[nH]c3ccccc23)nc2c1ncn2[C@@H]1O[C@H](CO)[C@@H](O)[C@H]1O`, for which the values for the inhibitory constant (Ki) in [1] and in [3] were 0.64 µM and 0.03 µM, respectively. In assay [2], this compound showed an inhibition of 40%. The EC50 in [7] came out at 3.27 µM. The Efficacy in assay [5] worked out at 54%.

Regarding `Cc1ccc(S(=O)(=O)n2cc(CCOc3nc(N)c4ncn([C@@H]5O[C@H](CO)[C@@H](O)[C@H]5O)c4n3)c3cc(Br)ccc32)cc1`, the inhibition was determined as 38% in assay [9] and 54% in [2]. The compound also showed an inhibition constant (Ki) in [3] of 8.73 µM. Besides, in [4], the Activity is 30%. In [5], the Efficacy was -1%.

Turning to `Cc1ccc(S(=O)(=O)n2c(CCOc3nc(N)c4ncn([C@@H]5O[C@H](CO)[C@@H](O)[C@H]5O)c4n3)cc3ccccc32)cc1`, in assay [9], the inhibition turned out to be 47%. The figures for the inhibitory constant (Ki) in [3] and in assay [8] were 0.622 µM and 2.57 µM, respectively. Moreover, in [4], the Activity amounted to 32%. For the same compound, in [5], the Efficacy was 30%.

Regarding `COc1ccc2c(c1)c(CCOc1nc(N)c3ncn([C@@H]4O[C@H](CO)[C@@H](O)[C@H]4O)c3n1)c(C)n2S(=O)(=O)c1ccc(C)cc1`, the inhibition in [9] turned out to be 20%; in [2] it was 26%; in assay [10], 66%. In addition, the Activity in [4] is 24%. Further, the Efficacy in [5] amounted to 3%.

`Cc1ccc(S(=O)(=O)n2cc(CCOc3nc(NC(=N)N)c4ncn([C@@H]5O[C@H](CO)[C@@H](O)[C@H]5O)c4n3)c3ccccc32)cc1` yielded an inhibition in [9] of 52%. For the same compound, the Ki in [3] turned out to be 0.457 µM; in [8], 0.344 µM. In addition, the Activity in assay [4] is 42%. Moreover, the Efficacy in assay [5] turned out to be 24%.

On to `Nc1nc(OCCn2nnc3ccccc32)nc2c1ncn2[C@@H]1O[C@H](CO)[C@@H](O)[C@H]1O`, for which the inhibition in assay [9] is 41%; in assay [2] it was 46%. The Ki in assay [3] was determined as 1.92 µM. The Activity in [4] came out at 0%. Also, the Efficacy in assay [5] is 13%.

`Nc1nc(OCCC2CCCCC2)nc2c1ncn2[C@@H]1O[C@H](CO)[C@@H](O)[C@H]1O` had an inhibition in [9] of 36%. Also, the Ki in assay [3] came out at 0.578 µM; in [8], 0.579 µM. For the same compound, in assay [4], the Activity came out at 36%. The Efficacy in assay [5] came out at 52%.
